Calls of active or inactive are those of the source. The calls are words filed in the database; no cut-off is given here.
What was measured:
[1] = Intrinsic clearance in human liver microsomes; type: ADME, Microsome; details: for microsomal CLint: liver microsomes, read-out: CLH
[2] = Intrinsic clearance in rat hepatocytes assessed per 10^-6 cells; type: ADME, cell-based, Hepatocyte
[3] = Distribution coefficient, log D of compound at pH 7.4; type: physicochemical; details: octanol/water
[4] = Efflux ratio of apparent permeability in human Caco2 cells at 10 uM at pH 7.4; type: ADME, cell-based; details: Caco-2, pH 7.4
GTPase KRas = GTPase KRas (Homo sapiens, UniProt P01116, G12C); assay: Inhibition of GDP bound biotinylated human C-terminal Avi/His6-tagged KRAS G12C mutant (1 to 166 residues) expressed in Escherichia coli BL21 (DE3) assessed as reduction in SOS1-mediated GDP/GTP nucleotide exchange by preventing recognition between KRAS G12C mutant and Ras binding domain of N-terminal Avi/GST-tagged Raf-1 (51 to 149 residues) preincubated for 4 hrs followed by SOS1 and GTPgammaS addition by FRET assay
[5] = GSH reactivity in PBS buffer assessed as half life at pH 7.4 and 37 degree C in presence of glutathione; type: physicochemical; details: PBS buffer with glutathione
in vivo = details: Han Wistar, rat, po, 2 umol/kg
[6] = Volume of distribution at steady state in Han Wistar rat at 2 umol/kg, po or 1 umol/kg, iv; details: in vivo
[7] = Clearance in Han Wistar rat at 2 umol/kg, po or 1 umol/kg, iv; details: in vivo
[8] = molecular target: GTPase KRas (Homo sapiens) (UniProt P01116); assay: Inhibition of wild type KRAS expressed in human PC9 cells assessed as […] at 1 uM measured after 6 hrs by TQ-UPLC/MS analysis; type: cell-based
[9] = system: GTPase KRas (Homo sapiens), P01116 [G12C]; assay: Inhibition of KRAS G12C mutant expressed in human SW1573 cells assessed as […] at 1 uM measured after 6 hrs by TQ-UPLC/MS analysis relative to control; type: cell-based
[10] = system: GTPase KRas (Homo sapiens), P01116 [G12C]; assay: Inhibition of KRAS G12C mutant expressed in human H23 cells assessed as […] at 1 uM measured after 6 hrs by TQ-UPLC/MS analysis relative to control; type: cell-based
Mus musculus = assay: Decrease in DUSP6 mRNA level in tumor of athymic NU-Fox1nu mouse xenografted with human MIAPaca2 cells at 10 to 100 mg/kg, po qd measured at 3 to 24 hrs post-treatment by qRT-PCR analysis; type: functional, organism-based
[11] = system: GTPase KRas (Homo sapiens), P01116 [G12C]; assay: Inhibition of KRAS G12C mutant in human H358 cells assessed as […] at 1 uM measured after 6 hrs by TQ-UPLC/MS analysis relative to control; type: cell-based
Lu-99 cell line [12] = assay: Antiproliferative activity against human LU99 cells expressing KRAS G12C mutant assessed as cell growth inhibition cultured in soft agar medium containing compounds and supplemented with fresh medium for every 7 days by 3D soft agar proliferation assay; type: functional, cell-based
Lu-99 cell line [13] = assay: Antiproliferative activity against human LU99 cells expressing KRAS G12C mutant assessed as cell growth inhibition measured after 5 days by sytox green dye staining based 2D proliferation assay; type: functional
[14] = system: GTPase KRas (Homo sapiens), P01116 [G12C]; assay: Inhibition of KRAS G12C mutant expressed in human LU65 cells assessed as […] at 1 uM measured after 6 hrs by TQ-UPLC/MS analysis relative to control; type: cell-based
[15] = system: GTPase KRas (Homo sapiens), P01116 [UNDEFINED MUTATION]; assay: Inhibition of KRas mutant expressed in human A549 cells assessed as […] at 1 uM measured after 6 hrs by TQ-UPLC/MS analysis; type: cell-based
[16] = system: GTPase KRas (Homo sapiens), P01116 [G12C]; assay: Binding affinity to KRAS G12C mutant in human […] cell lysate assessed as trypsin-mediated biotinylated cysteine residues digestion by measuring reduction in protein level at 4 uM prelabeled with iodoacetamide desthiobiotin followed by compound treatment measured after 4 hrs by MS analysis relative to control; type: subcellular
[17] = system: GTPase KRas (Homo sapiens), P01116 [G12C]; assay: Inhibition of KRAS G12C mutant expressed in human HOP62 cells assessed as […] at 1 uM measured after 6 hrs by TQ-UPLC/MS analysis relative to control; type: cell-based
[18] = system: GTPase KRas (Homo sapiens), P01116 [UNDEFINED MUTATION]; assay: Inhibition of KRas mutant expressed in human H2291 cells assessed as […] at 1 uM measured after 6 hrs by TQ-UPLC/MS analysis; type: cell-based
[19] = system: GTPase KRas (Homo sapiens), P01116 [G12C]; assay: Inhibition of KRAS G12C mutant expressed in human H1373 cells assessed as […] at 1 uM measured after 6 hrs by TQ-UPLC/MS analysis relative to control; type: cell-based
[20] = system: GTPase KRas (Homo sapiens), P01116 [G12C]; assay: Inhibition of KRAS G12C mutant expressed in human HCC44 cells assessed as […] at 1 uM measured after 6 hrs by TQ-UPLC/MS analysis relative to control; type: cell-based
[21] = system: GTPase KRas (Homo sapiens), P01116 [G12C]; assay: Inhibition of KRAS G12C mutant expressed in human Calu1 cells assessed as […] at 1 uM measured after 6 hrs by TQ-UPLC/MS analysis relative to control; type: cell-based
MIA PaCa-2 = assay: Antitumor activity against human MIAPaCa2 cells harboring KRAS G12C mutant xenografted in orally dosed athymic NU-Fox1nu nude mouse assessed as tumor regression administered daily for 2 weeks and further treated for 3 weeks; type: functional, organism-based
[22] = system: GTPase KRas (Homo sapiens), P01116 [G12C]; assay: Inhibition of KRAS G12C mutant expressed in human H1792 cells assessed as […] at 1 uM measured after 6 hrs by TQ-UPLC/MS analysis relative to control; type: cell-based
SW1573 [23] = assay: Antiproliferative activity against human SW1573 cells expressing KRAS G12C mutant assessed as cell growth inhibition cultured in soft agar medium containing compounds and supplemented with fresh medium for every 7 days by 3D soft agar proliferation assay; type: functional, cell-based
SW1573 [24] = assay: Antiproliferative activity against human SW1573 cells harboring KRAS G12C mutant assessed as cell growth inhibition measured after 5 days by sytox green dye staining based 2D proliferation assay; type: functional
[25] = system: GTPase KRas (Homo sapiens), P01116 [G12C]; assay: Inhibition of KRAS G12C mutant expressed in human LU99 cells assessed as […] at 1 uM measured after 6 hrs by TQ-UPLC/MS analysis relative to control; type: cell-based
[26] = system: GTPase KRas (Homo sapiens), P01116 [G12C]; assay: Inhibition of KRAS G12C mutant expressed in human H2122 cells assessed as […] at 1 uM measured after 6 hrs by TQ-UPLC/MS analysis relative to control; type: cell-based

Structure (SMILES): C=CC(=O)N1CCN2c3c(cnc4cc(-c5c(O)cccc5F)c(Cl)cc34)NC(=O)[C@H]2C1
- microsomal CLint [1]: 34 µL/min/mg
- hepatocyte intrinsic clearance [2]: 11 µL/min
- logD ([3]; read-out: logD): 3
- efflux ratio at 10 µM [4]: 17.9
- IC50 (GTPase KRas): 0.073 µM

Structure (SMILES): C=CC(=O)N1CCN2c3c(cnc4cc(-c5c(C)ccc6[nH]ncc56)c(Cl)cc34)OC[C@H]2C1 (single isomer, unassigned; atropisomer 1)
- Intrinsic clearance in human liver microsomes [1]: 165 µL/min/mg
- hepatocyte intrinsic clearance [2]: 174 µL/min
- logD ([3]; read-out: logD): 4.2

Structure (SMILES): C=CC(=O)N1CCN2c3c(cnc4cc(-c5c(C)ccc6[nH]ncc56)c(Cl)cc34)OC[C@@H]2C1 (single isomer, unassigned; atropisomer 1)
- Intrinsic clearance in human liver microsomes [1]: 121 µL/min/mg
- hepatocyte intrinsic clearance [2]: 67 µL/min
- logD [3]: 4
- IC50 (GTPase KRas): 8.86 µM

Structure (SMILES): C=CC(=O)N1CCN2c3c(cnc4c(F)c(-c5c(O)cccc5F)c(Cl)cc34)OC[C@H]2C1 (atropisomer aR)
- microsomal CLint [1]: 17 µL/min/mg
- hepatocyte intrinsic clearance [2]: 22 µL/min
- logD ([3]; read-out: logD): 3.4
- IC50 (GTPase KRas): 0.016 µM

Structure (SMILES): C=CC(=O)N1CCN2c3c(cnc4cc(-c5c(C)ccc6[nH]ncc56)c(Cl)cc34)OCC[C@@H]2C1
- microsomal CLint [1]: 81 µL/min/mg
- hepatocyte intrinsic clearance [2]: 104 µL/min
- IC50 (GTPase KRas): 4.34 µM

Structure (SMILES): C=CC(=O)N1C[C@@H]2COc3cnc4cc(-c5c(O)cccc5F)c(Cl)cc4c3N2C[C@@H]1C
- microsomal CLint [1]: 100 µL/min/mg
- hepatocyte intrinsic clearance [2]: 74 µL/min
- half-life [5]: 9.75 h
- logD ([3]; read-out: logD): 3.7
- IC50 (GTPase KRas): 7.65 µM

Structure (SMILES): C=CC(=O)N1CCN2c3c(cnc4c(F)c(-c5c(O)cccc5F)c(Cl)cc34)N(C)C(=O)[C@H]2C1
- microsomal CLint [1]: 21 µL/min/mg
- bioavailability (in vivo): 56%
- hepatocyte intrinsic clearance [2]: 10 µL/min
- half-life [5]: 15.5 h
- Vd [6]: 0.8 L/kg
- logD ([3]; read-out: logD): 2.9
- efflux ratio at 10 µM [4]: 1.5
- clearance [7]: 6 mL/min/kg

Structure (SMILES): C=CC(=O)N1C[C@@H]2C(=O)N(C)c3cnc4c(F)c(-c5c(O)cccc5F)c(Cl)cc4c3N2C[C@H]1C
- inhibition [8]: inactive
- microsomal CLint [1]: 21 µL/min/mg
- inhibition [9]: 70%
- bioavailability (in vivo): 94%
- inhibition [10]: 80%
- hepatocyte intrinsic clearance [2]: 11 µL/min
- inhibition (Mus musculus): Active
- half-life [5]: 5.57 h
- inhibition [11]: 82%
- growth inhibition (GI) (Lu-99 cell line [12]): inactive
- growth inhibition (GI) (Lu-99 cell line [13]): inactive
- inhibition [14]: 84%
- inhibition [15]: inactive
- Vd [6]: 1 L/kg
- fold change (FC) [16]: > 2
- inhibition [17]: 89%
- inhibition [18]: inactive
- inhibition [19]: 86%
- inhibition [20]: 79%
- logD ([3]; read-out: logD): 3.4
- inhibition [21]: 73%
- Activity (MIA PaCa-2): Dose-dependent effect
- efflux ratio at 10 µM [4]: 1.1
- inhibition [22]: 75%
- growth inhibition (GI) (SW1573 [23]): inactive
- clearance [7]: 4 mL/min/kg
- growth inhibition (GI) (SW1573 [24]): inactive
- inhibition [25]: 100%
- IC50 (GTPase KRas): < 0.005 µM
- inhibition [26]: 74%

Structure (SMILES): C=CC(=O)N1CCN2c3c(cnc4cc(-c5c(C)ccc6[nH]ncc56)c(Cl)cc34)OC[C@H]2C1 (single isomer, unassigned; atropisomer 2)
- Intrinsic clearance in human liver microsomes [1]: 46 µL/min/mg
- hepatocyte intrinsic clearance [2]: 65 µL/min
- logD [3]: > 4.2
- IC50 (GTPase KRas): 1.38 µM

Structure (SMILES): C=CC(=O)N1CCN2c3c(cnc4cc(-c5c(C)ccc6[nH]ncc56)c(Cl)cc34)OCC[C@H]2C1
- microsomal CLint [1]: > 300 µL/min/mg
- hepatocyte intrinsic clearance [2]: 102 µL/min
- IC50 (GTPase KRas): 0.627 µM

From ChEMBL document CHEMBL4402559, “Structure-Based Design and Pharmacokinetic Optimization of Covalent Allosteric Inhibitors of the Mutant GTPase KRASG12C” (J Med Chem, 2020)
